Data on 17 molecules can be found in US9994644B2, “mAB 2 anti-Met antibody” (Agency for Science, Technology and Research, priority 2013, dated 2018).

Assay [1] has as its target c-Met (Homo sapiens, UniProt P08581). Conditions: background statement; cited from earlier work.
In the next assay the test system is SNU-5 cells. In words: CellTiter-Glo luminescent cell viability assay. It counts as cell-based, human. As to conditions: SNU-5, 72 hrs; mAb 10 μg/mL, SU11274 5 μM. The protocol:
(§1) In order to determine if these antibodies have any physiological effects on tumour cells, 10 μg/mL of mAb was added to SNU-5 cells. […] This indicates SU11274 mode of mechanism is by activation of caspase which in turn result in apoptosis of SNU-5 tumour cells.
(§2) CellTiter-Glo® luminescent cell viability assay and Caspase-Glo® 3/7 Assay (Promega, U.S.A.) were used to determine cell viability and caspase activation respectively. SNU-5 cells (1×10^5 cells) were seeded in each 96-well and treated for 72 hrs before analysis. Cell viability and caspase activation were performed according to manufacturer's protocol. Luminescence was read using the EnVision plate reader (PerkinElmer, U.S.A.).
Background: Cellular ATP, detected with luciferase, serves as a proxy for viable cell number.

In assay [2] the test system is caspase activation in SNU-5 cells. In words: Caspase-Glo 3/7 caspase activation assay. It counts as cell-based, human. Conditions: SNU-5, 72 hrs; mAb 10 μg/mL, SU11274 5 μM. The protocol:
as §1, §2

In a further assay the test system is HaCaT cells. The experiment in a line: Cell scatter assay. Type of assay: cell-based. As to conditions: 10 ng/mL HGF, controls. The protocol:
Cell scattering is one of the biological hallmarks of c-Met activation. Agonist bivalent monoclonal antibodies targeting c-Met would activate c-Met and cause cells to become motile and disperse. Here, we examine the effects of purified anti-α-chain c-Met monoclonal antibodies on cell scatter. HaCaT cells were seeded at low density and allowed to grow until colonies formed. Cells were serum-starved for 24 hrs before incubating with 1 μg/mL monoclonal antibodies for 24 hrs. Cells were then fixed and stained with crystal violet. As a control, cell scatter of HaCaT cells was induced with 10 ng/mL of HGF (FIG. 5). […] Anti-HGF antibody and SU11274 were used as controls. SU11274 is a small molecule inhibitor of c-Met.
100-200 HaCaT cells were seeded in 24-well plates and allowed to grow until small colonies were formed (approximately 7 days). Cells were serum-starved for 24 hrs. Cells were incubated with purified monoclonal antibodies (1 μg/mL) for 24 hrs before rinsing twice in cold PBS and fixing in ice-cold methanol. Cells were then stained in 1% crystal-violet (Sigma-Aldrich) solution. Cell staining was observed using Zeiss Axiovert 25 inverted microscope and pictures were taken using a Canon EOS 1000 D camera.

The test system of assay [3] is c-Met. Conditions: background statement; cited from earlier work.
Another assay relates to mAb 2. In words: Alanine scan ELISA and mAb 2 titration against peptides. Conditions: for mAb 2 binding to alanine-substituted peptide: 0.05 μg/mL mAb 2, 1 mM DTT; for Increase mAb 2 binding in ascending order: titration of purified mAb 2 against peptides, 1 = least binding. It counts as binding, murine. The protocol: Variations of peptides O28 and O29, where each amino acid residue was sequentially substituted for an alanine residue, were synthesised. Streptavidin-coated plates (Pierce/Thermo Scientific, #15520) were blocked with 3% BSA/PBS at room temperature. The peptides were dissolved in DMSO and stored according to manufacturer's recommendation. Streptavidin-coated plates were coated with each peptide (5 μg/mL) overnight at room temperature. Wells were washed before hybridoma supernatant or purified monoclonal antibody was added to the each well. HRP-conjugated anti-mouse antibody was added to detect bound monoclonal antibodies. ELISA substrate (Bio-Rad #172-1067) solution was prepared freshly according to the manufacturer's instructions and added to the wells. Colour change was monitored by eye and the reaction was stopped by adding 100 mM sulphuric acid. Absorbance was read at 450 nm in a microplate reader (SPECTRAmax PLUS^384, Molecular Device, U.S.A.). The crystal structure of c-Met extracellular domain, accession number 1 SHY, was obtained from Protein Data Base (PDB). Computer imaging of the epitopes were analysed by PyMol (DeLano Scientific LLC, U.S.A.) software.
To identify residues within peptides O28 and O29 that are crucial for mAb 2-Met interaction, an alanine scan was performed. Variations of peptide O28 and O29, where each amino acid residue was sequentially substituted for an alanine residue, were synthesised (Table 3). Peptides P1 to P16 (with the SEQ II) NO: […]) and P17 to P31. (with the SEQ ID NO: 40 to 56) were derived from the original peptide O28 and O29 respectively. Using the same ELISA-based assay described above, synthesised peptides were added to streptavidin-coated wells and purified mAb 2 was added to each peptide containing well. mAb 2 binding was determined by absorbance reading at […]. […] Peptide O27, peptide O1 and no peptide were used as negative controls.
The substituted amino acid residues in these peptides are thus involved in mAb 2 epitope. […] This is supported by the loss of mAb 2 binding due to the substitution of proline by alanine in peptides P14, P25 and P10. To determine which residues play a more crucial role in mAb 2 binding, mAb 2 was titrated against the peptides (FIG. 12B). […] These residues are not consecutive residues.
Background: An ELISA detects its analyte on a solid surface through an enzyme-linked reagent.

Chain of c-Met (Homo sapiens, UniProt P08581) (P08581 25-307): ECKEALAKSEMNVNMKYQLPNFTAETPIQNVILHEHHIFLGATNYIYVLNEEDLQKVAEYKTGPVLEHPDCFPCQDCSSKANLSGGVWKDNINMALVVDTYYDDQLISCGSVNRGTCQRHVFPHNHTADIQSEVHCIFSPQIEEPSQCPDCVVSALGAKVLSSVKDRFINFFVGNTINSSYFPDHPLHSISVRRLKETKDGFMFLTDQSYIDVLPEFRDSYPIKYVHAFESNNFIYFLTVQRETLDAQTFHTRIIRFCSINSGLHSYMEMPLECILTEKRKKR
Chain of c-Met (Homo sapiens, UniProt P08581) (P08581 308-1390): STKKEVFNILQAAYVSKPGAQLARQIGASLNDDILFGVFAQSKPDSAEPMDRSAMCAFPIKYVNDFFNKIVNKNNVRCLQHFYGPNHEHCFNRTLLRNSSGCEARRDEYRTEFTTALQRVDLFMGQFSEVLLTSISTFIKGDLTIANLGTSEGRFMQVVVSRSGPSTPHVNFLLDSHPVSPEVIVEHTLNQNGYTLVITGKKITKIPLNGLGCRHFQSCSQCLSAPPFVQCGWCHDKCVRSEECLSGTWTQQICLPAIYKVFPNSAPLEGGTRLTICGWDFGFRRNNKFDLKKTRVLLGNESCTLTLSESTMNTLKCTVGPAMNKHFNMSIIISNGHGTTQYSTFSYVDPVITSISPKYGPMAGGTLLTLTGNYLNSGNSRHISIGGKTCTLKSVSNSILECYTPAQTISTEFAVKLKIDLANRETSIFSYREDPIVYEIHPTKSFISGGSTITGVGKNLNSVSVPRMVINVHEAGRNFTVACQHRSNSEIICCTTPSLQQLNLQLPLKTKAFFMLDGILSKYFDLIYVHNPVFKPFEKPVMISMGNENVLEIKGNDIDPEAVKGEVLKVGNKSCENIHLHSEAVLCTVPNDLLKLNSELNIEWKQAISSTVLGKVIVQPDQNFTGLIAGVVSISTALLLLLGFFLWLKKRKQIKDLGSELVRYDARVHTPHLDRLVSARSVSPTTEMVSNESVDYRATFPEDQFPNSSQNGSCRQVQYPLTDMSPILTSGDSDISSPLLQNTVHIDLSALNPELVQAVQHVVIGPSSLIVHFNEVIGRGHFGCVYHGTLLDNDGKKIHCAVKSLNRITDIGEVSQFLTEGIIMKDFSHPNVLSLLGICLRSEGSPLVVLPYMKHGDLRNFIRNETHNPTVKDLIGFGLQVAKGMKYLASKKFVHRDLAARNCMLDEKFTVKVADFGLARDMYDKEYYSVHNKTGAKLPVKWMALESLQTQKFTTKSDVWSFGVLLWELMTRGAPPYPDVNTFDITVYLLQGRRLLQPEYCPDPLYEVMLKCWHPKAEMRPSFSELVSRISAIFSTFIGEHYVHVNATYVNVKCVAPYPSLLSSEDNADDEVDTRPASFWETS

As for `COc1cc2c(Oc3ccc(-c4cnc(Cc5ccccc5)n(C)c4=O)cc3F)ccnc2cc1OCCCN1CCOCC1` [AM7], the “inhibition of c-Met activation” value on c-Met [1] was “extremely successful”. Turning to `Cc1[nH]c(/C=C2\C(=O)Nc3ccc(S(=O)(=O)Cc4c(Cl)cccc4Cl)cc32)c(C)c1C(=O)N1CCC[C@@H]1CN1CCCC1` [PHA-665752], the “inhibition of c-Met activation” value on c-Met [1] was “extremely successful”.

As to `Cc1[nH]c(/C=C2\C(=O)Nc3ccc(S(=O)(=O)N(C)c4cccc(Cl)c4)cc32)c(C)c1C(=O)N1CCN(C)CC1` [SU11274], in the assay with SNU-5 cells, the cell viability result was “significant reduction”. Further, the caspase activation result in assay [2] is listed as “high caspase activation”. In the assay with HaCaT cells, the HGF-induced cell scatter entry is “remained circular”. Besides, the “inhibition of c-Met activation” value on c-Met [1] is “extremely successful”. For the same molecule, the “activity against specific c-Met mutations” value with c-Met [3] is “ineffective”. With “AIEEPSQCPDCVVSA [P17, alanine-substituted variant of peptide O29]”, in the assay on mAb 2, the “mAb 2 binding to alanine-substituted peptide” value is “failed to bind” and the “Increase mAb 2 binding in ascending order” value (shortened to “Increase mAb 2 binding”) worked out at 5.

For the molecule “AIFSPQIEEPSQCPD [P1, alanine-substituted variant of peptide O28]”, in the assay with mAb 2, the “mAb 2 binding to alanine-substituted peptide” value is “failed to bind”.

Turning to “CIFSPQAEEPSQCPD [P7, alanine-substituted variant of peptide O28]”, in the assay on mAb 2, the “mAb 2 binding to alanine-substituted peptide” value is listed as “failed to bind” and the “Increase mAb 2 binding” value was 8. In the case of “CIFSPQIAEPSQCPD [P8, alanine-substituted variant of peptide O28]”, in the assay with mAb 2, the “mAb 2 binding to alanine-substituted peptide” value is given as “failed to bind”.

With “CIFSPQIEAPSQCPD [P9, alanine-substituted variant of peptide O28]”, in the assay with mAb 2, the “mAb 2 binding to alanine-substituted peptide” value is on record as “failed to bind” and the “Increase mAb 2 binding” value is given as 4.

On to “CIFSPQIEEASQCPD [P10, alanine-substituted variant of peptide O28]”, for which, in the assay on mAb 2, the “mAb 2 binding to alanine-substituted peptide” value is recorded as “failed to bind” and the “Increase mAb 2 binding” value is given as 7. “CIFSPQIEEPSQCAD [P14, alanine-substituted variant of peptide O28]”: the “mAb 2 binding to alanine-substituted peptide” value with mAb 2 is “failed to bind”. Consider “CIFSPQIEEPSQCPA [P15, alanine-substituted variant of peptide O28]”, for which, in the assay on mAb 2, the “mAb 2 binding to alanine-substituted peptide” value is given as “failed to bind” and the “Increase mAb 2 binding” value was 10.

As for “CIFSPQIEEPSQCPD [O28, pepscan peptide of human c-Met α-chain]”, the “Increase mAb 2 binding” value with mAb 2 is reported as 11.

Consider “QIAEPSQCPDCVVSA [P19, alanine-substituted variant of peptide O29]”, for which, in the assay on mAb 2, the “mAb 2 binding to alanine-substituted peptide” value is reported as “failed to bind” and the “Increase mAb 2 binding” value is 6. With “QIEAPSQCPDCVVSA [P20, alanine-substituted variant of peptide O29]”, in the assay with mAb 2, the “mAb 2 binding to alanine-substituted peptide” value is reported as “failed to bind” and the “Increase mAb 2 binding” value is given as 9.

Turning to “QIEEPSQCADCVVSA [P25, alanine-substituted variant of peptide O29]”, in the assay with mAb 2, the “mAb 2 binding to alanine-substituted peptide” value is “failed to bind” and the “Increase mAb 2 binding” value amounted to 3. In the case of “QIEEPSQCPDCVVSA [O29, pepscan peptide of human c-Met α-chain]”, in the assay on mAb 2, the “Increase mAb 2 binding” value is recorded as 11.

B1: MetMab: monovalent chimeric antibody targeted against c-Met (antibody, chains of the INN, looked up, V domains shown)
VH: EVQLVESGGGLVQPGGSLRLSCAASGYTFTSYWLHWVRQAPGKGLEWVGMIDPSNSDTRFNPNFKDRFTISADTSKNTAYLQMNSLRAEDTAVYYCATYRSYVTPLDYWGQGTLVTVSS
VL: DIQMTQSPSSLSASVGDRVTITCKSSQSLLYTSSQKNYLAWYQQKPGKAPKLLIYWASTRESGVPSRFSGSGSGTDFTLTISSLQPEDFATYYCQQYYAYPWTFGQGTKVEIK
modifications: one-armed monovalent
notes: monovalent chimeric antibody targeted against c-Met
As to B1, in the assay with c-Met [1], the “agonist/antagonist activity towards c-Met” value was “antagonist”.
